According to ChEMBL document CHEMBL1155294, “Synthesis and evaluation of 6-methyl-3-phenylcoumarins as potent and selective MAO-B inhibitors” (Bioorg Med Chem Lett, 2009):

What was measured:
[1] = target: T1, Amine oxidase [flavin-containing] A (Homo sapiens, UniProt P21397); experiment: Inhibition of human recombinant MAOA expressed in BTI cells at 100 uM; format: cell-based
T1 sequence (P21397 whole entry): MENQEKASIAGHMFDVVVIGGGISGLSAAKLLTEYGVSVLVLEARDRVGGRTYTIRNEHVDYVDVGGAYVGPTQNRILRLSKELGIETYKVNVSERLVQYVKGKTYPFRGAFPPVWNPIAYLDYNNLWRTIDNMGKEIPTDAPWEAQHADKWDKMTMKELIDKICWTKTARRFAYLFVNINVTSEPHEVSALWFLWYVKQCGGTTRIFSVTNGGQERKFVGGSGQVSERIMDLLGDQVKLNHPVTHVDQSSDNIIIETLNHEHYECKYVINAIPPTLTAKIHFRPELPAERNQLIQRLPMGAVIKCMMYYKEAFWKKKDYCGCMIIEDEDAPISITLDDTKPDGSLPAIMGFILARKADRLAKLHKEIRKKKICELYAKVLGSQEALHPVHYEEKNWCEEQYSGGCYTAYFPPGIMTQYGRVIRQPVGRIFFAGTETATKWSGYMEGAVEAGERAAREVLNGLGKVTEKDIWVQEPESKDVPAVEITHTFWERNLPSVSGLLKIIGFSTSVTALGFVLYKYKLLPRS

[2] = target: T2, Amine oxidase [flavin-containing] B (Homo sapiens, UniProt P27338); experiment: Inhibition of human recombinant MAOB expressed in BTI cells at 100 uM; format: cell-based
T2 sequence (P27338 whole entry): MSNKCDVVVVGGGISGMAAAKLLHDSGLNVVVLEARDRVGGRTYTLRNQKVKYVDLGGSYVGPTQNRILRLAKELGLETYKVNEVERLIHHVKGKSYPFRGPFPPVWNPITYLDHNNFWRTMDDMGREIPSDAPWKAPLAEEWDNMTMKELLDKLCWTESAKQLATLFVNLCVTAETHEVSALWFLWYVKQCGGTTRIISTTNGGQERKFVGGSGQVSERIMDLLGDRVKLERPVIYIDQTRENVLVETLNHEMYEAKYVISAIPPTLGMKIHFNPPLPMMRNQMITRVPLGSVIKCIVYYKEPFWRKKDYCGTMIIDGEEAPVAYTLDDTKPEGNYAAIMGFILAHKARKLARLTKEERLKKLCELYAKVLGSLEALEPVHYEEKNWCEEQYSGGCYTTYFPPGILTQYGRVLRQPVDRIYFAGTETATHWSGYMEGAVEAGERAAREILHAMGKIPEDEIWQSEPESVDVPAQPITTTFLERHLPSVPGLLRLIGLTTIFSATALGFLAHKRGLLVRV

[3] = target: T2, Amine oxidase [flavin-containing] B; experiment: Inhibition of human recombinant MAOB expressed in BTI cells; format: cell-based
[4] = species on record: Homo sapiens; experiment: Selectivity index, ratio of IC50 for human recombinant MAOA to IC50 for human recombinant MAOB

| inhibition (INH) [1] | IC50 [2] | IC50 [3] | Ratio IC50 [4] | SMILES |
| --- | --- | --- | --- | --- |
| Not Active |  |  |  | Cc1ccc2oc(=O)c(-c3ccc(O)cc3)cc2c1 |
| Not Active | Not Active |  |  | COc1ccccc1-c1cc2cc(C)ccc2oc1=O |
| Not Active |  | 0.803 nM | > 125000 | COc1cccc(-c2cc3cc(C)ccc3oc2=O)c1 |
| Not Active |  |  | > 7660 | COc1ccc(-c2cc3cc(C)ccc3oc2=O)cc1 |
